We go through 23 molecules from patent US10626081B2, “Farnesoid X receptor agonists and uses thereof” (Metacrine, Inc., priority 2015, dated 2020).

Each structure is given as a SMILES string. pEC50: −log10 of the molar value.

In this assay the target is T1, FXR (Homo sapiens, UniProt Q96RI1).
T1 construct: expressed in transfected cells; host or cells: CV-1 cells
T1 sequence (Q96RI1 1-486): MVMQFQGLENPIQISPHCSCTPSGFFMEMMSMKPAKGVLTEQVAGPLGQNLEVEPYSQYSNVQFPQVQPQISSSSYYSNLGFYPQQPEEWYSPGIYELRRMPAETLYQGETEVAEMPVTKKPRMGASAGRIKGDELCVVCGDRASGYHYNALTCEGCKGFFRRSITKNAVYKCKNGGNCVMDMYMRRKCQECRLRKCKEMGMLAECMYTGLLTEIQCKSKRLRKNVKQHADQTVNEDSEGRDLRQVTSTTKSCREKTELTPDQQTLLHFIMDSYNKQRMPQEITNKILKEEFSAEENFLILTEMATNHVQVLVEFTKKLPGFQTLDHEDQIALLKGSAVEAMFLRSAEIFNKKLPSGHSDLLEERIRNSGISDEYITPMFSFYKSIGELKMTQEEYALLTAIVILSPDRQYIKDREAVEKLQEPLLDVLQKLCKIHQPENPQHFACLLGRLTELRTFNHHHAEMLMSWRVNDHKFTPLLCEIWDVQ
T1 sequence (P19793 1-462 partner): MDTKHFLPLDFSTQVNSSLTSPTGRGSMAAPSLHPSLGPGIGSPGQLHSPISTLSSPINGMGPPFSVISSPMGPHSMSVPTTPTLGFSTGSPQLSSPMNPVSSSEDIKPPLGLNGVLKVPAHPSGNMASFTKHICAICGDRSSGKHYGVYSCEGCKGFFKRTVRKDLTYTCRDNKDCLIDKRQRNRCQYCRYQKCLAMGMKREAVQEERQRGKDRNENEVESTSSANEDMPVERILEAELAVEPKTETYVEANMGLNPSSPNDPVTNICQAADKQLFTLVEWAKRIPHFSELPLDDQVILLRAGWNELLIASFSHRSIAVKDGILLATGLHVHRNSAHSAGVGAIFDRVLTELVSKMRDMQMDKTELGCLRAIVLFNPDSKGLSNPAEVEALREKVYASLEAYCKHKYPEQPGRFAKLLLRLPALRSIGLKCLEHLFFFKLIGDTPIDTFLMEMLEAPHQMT
Put plainly: In Vitro FXR Assay (TK): TK-ECRE-luc reporter in transfected CV-1 cells. The format is cell-based. To be noted: CV-1 cells transfected with hFXR, hRXR, 18 h incubation, luminescence. As for the experimental part:
Example B-2: In Vitro FXR Assay (TK)
CV-1 cells were seeded at a density of 2,000,000 cells in a T175 flask with DMEM+10% charcoal double-stripped FBS and incubated at 37° C. in 5% CO2 for 18 h (O/N).
After 18 h of incubation, the medium in the T175 flask was changed with fresh DMEM+10% charcoal super-stripped serum. In a polypropylene tube, 2500 μL OptiMEM (Life Technologies, Cat #31985-062) was combined with expression plasmids for hFXR, hRXR, TK-ECRE-luc and pCMX-YFP. The tube was then briefly vortexed and incubated at room temperature for 5 minutes. Transfection reagent (X-tremeGENE HP from Roche, Cat #06 366 236 001) was added to the OptiMEM/plasmid mixture vortexed and incubated at room temperature for 20 minutes. Following incubation, the transfection reagent/DNA mixture complex was added to cells in the T175 flask and the cells were incubated at 37° C. in 5% CO2 for 18 h (O/N).
Compounds were serially diluted in DMSO and added to transfected CV-1 cells. The cells were then incubated for 18 hrs. The next day cells were lysed and examined for luminescence.
For `COC(=O)/C=C/c1cccc(N(Cc2ccc(-c3ccc(N(C)C)cc3)cc2)C(=O)[C@@H]2CCCC[C@H]2O)c1` (relative stereo) [13.25, trans-(E)-Methyl 3-(3-(N-((4′-(dimethylamino)-[1,1′-biphenyl]-4-yl)methyl)-2-hydroxycyclohexanecarboxamido)phenyl)acrylate], the pEC50 is 5.00 to 6.00.
Molecule `COC(=O)/C=C/c1cccc(N(Cc2ccc(-c3ccc(N(C)C)cc3)cc2)C(=O)[C@@H]2CCCC[C@@H]2O)c1` (relative stereo) [13.26, cis-(E)-Methyl 3-(3-(N-((4′-(dimethylamino)-[1,1′-biphenyl]-4-yl)methyl)-2-hydroxycyclohexanecarboxamido)phenyl)acrylate] had a pEC50 of 5.00 to 6.00.
Next, `COC(=O)/C=C/c1cccc(N(Cc2ccc(-c3ccc(N(C)C)cc3)cc2)C(=O)[C@@H]2CCC[C@H](O)C2)c1` (relative stereo) [13.27, cis-(E)-Methyl 3-(3-(N-((4′-(dimethylamino)-[1,1′-biphenyl]-4-yl)methyl)-3-hydroxycyclohexanecarboxamido)phenyl)acrylate]: no less than 6.00; `COC(=O)/C=C/c1cccc(N(Cc2ccc(-c3ccc(N(C)C)cc3)cc2)C(=O)[C@@H]2CCC[C@@H](O)C2)c1` (relative stereo) [13.28, trans-(E)-Methyl 3-(3-(N-((4′-(dimethylamino)-[1,1′-biphenyl]-4-yl)methyl)-3-hydroxycyclohexanecarboxamido)phenyl)acrylate]: less than 5.00; `COC(=O)/C=C/c1cccc(N(Cc2ccc(-c3ccc(N(C)C)cc3)cc2)C(=O)c2ccc(F)c(F)c2)c1` [13.1, (E)-Methyl 3-(3-(N-((4′-(dimethylamino)-[1,1′-biphenyl]-4-yl)methyl)-3,4-difluorobenzamido)phenyl)acrylate]: 5.00 to 6.00.
The figure for `COC(=O)/C=C/c1cccc(N(Cc2ccc(-c3ccc(N(C)C)cc3)cc2)C(=O)c2ccc(F)cc2)c1` [13.2, (E)-Methyl 3-(3-(N-((4′-(dimethylamino)-[1,1′-biphenyl]-4-yl)methyl)-4-fluorobenzamido)phenyl)acrylate] is 5.00 to 6.00.
Next, `COC(=O)/C=C/c1cccc(N(Cc2ccc(-c3ccc(N(C)C)cc3)cc2)C(=O)C2(C)CCCCC2)c1` [13.3, (E)-Methyl 3-(3-(N-((4′-(dimethylamino)-[1,1′-biphenyl]-4-yl)methyl)-1-methylcyclohexane-carboxamido)phenyl)acrylate]: 5.00 to 6.00.
Regarding `COC(=O)/C=C/c1cc(F)cc(N(Cc2ccc(-c3ccc(N(C)C)cc3)cc2)C(=O)C2CCCCC2)c1` [13.4, (E)-Methyl 3-(3-(N-((4′-(dimethylamino)-[1,1′-biphenyl]-4-yl)methyl)cyclohexanecarboxamido)-5-fluorophenyl)acrylate], the pEC50 is no less than 6.00.
Next, `COC(=O)/C=C/c1cc(F)cc(N(Cc2ccc(-c3ccc(N(C)C)cc3)cc2)C(=O)C2CC3CCC2C3)c1` (centres unmarked) [13.5, (E)-Methyl 3-(3-(N-((4′-(dimethylamino)-[1,1′-biphenyl]-4-yl)methyl)bicyclo[2.2.1]heptane-2-carboxamido)-5-fluorophenyl)acrylate]: no less than 6.00; `COC(=O)/C=C/c1cccc(N(Cc2ccc(-c3ccc(N(C)C)cc3)cc2)C(=O)C2(C)CCOCC2)c1` [13.6, (E)-Methyl 3-(3-(N-((4′-(dimethylamino)-[1,1′-biphenyl]-4-yl)methyl)-4-methyltetrahydro-2H-pyran-4-carboxamido)phenyl)acrylate]: 5.00 to 6.00; `COC(=O)/C=C/c1cccc(N(Cc2ccc(-c3ccc(N(C)C)cc3)cc2)C(=O)c2ccccc2OC)c1` [13.7, (E)-Methyl 3-(3-(N-((4′-(dimethylamino)-[1,1′-biphenyl]-4-yl)methyl)-2-methoxybenzamido)phenyl)acrylate]: no less than 6.00.
The figure for `COC(=O)/C=C/c1cccc(N(Cc2ccc(-c3ccc(N(C)C)cc3)cc2)C(=O)C2CCS(=O)(=O)CC2)c1` [13.8, (E)-Methyl 3-(3-(N-((4′-(dimethylamino)-[1,1′-biphenyl]-4-yl)methyl)-1,1-dioxidotetrahydro-2H-thiopyran-4-carboxamido)phenyl)acrylate] is less than 5.00; for `COC(=O)/C=C/c1cccc(N(Cc2ccc(-c3ccc(N(C)C)cc3)cc2)C(=O)C2CCSCC2)c1` [13.9, (E)-Methyl 3-(3-(N-((4′-(dimethylamino)-[1,1′-biphenyl]-4-yl)methyl)tetrahydro-2H-thiopyran-4-carboxamido)phenyl)acrylate] it is no less than 6.00.
Next, `COC(=O)/C=C/c1cccc(N(Cc2ccc(-c3ccc(N(C)C)cc3)cc2)C(=O)c2cccc(OC)c2)c1` [13.10, (E)-Methyl 3-(3-(N-((4′-(dimethylamino)-[1,1′-biphenyl]-4-yl)methyl)-3-methoxybenzamido)phenyl)acrylate]: 5.00 to 6.00; `COC(=O)/C=C/c1cccc(N(Cc2ccc(-c3ccc(N(C)C)cc3)cc2)C(=O)C2CN(S(C)(=O)=O)C2)c1` [13.11, (E)-Methyl 3-(3-(N-((4′-(dimethylamino)-[1,1′-biphenyl]-4-yl)methyl)-1-(methylsulfonyl)azetidine-3-carboxamido)phenyl)acrylate]: 5.00 to 6.00; `COC(=O)/C=C/c1cccc(N(Cc2ccc(-c3ccc(N(C)C)cc3)cc2)C(=O)c2ccc(OCCN3CCOCC3)cc2)c1` [13.12, (E)-Methyl 3-(3-(N-((4′-(dimethylamino)-[1,1′-biphenyl]-4-yl)methyl)-4-(2-morpholinoethoxy)benzamido)phenyl)acrylate]: 5.00 to 6.00.
As to `COC(=O)/C=C/c1cccc(N(Cc2ccc(-c3ccc(N(C)C)cc3)cc2)C(=O)C2CCC(SC)CC2)c1` (centres unmarked) [13.13, (E)-Methyl 3-(3-(N-((4′-(dimethylamino)-[1,1′-biphenyl]-4-yl)methyl)-4-(methylthio)cyclohexanecarboxamido)phenyl)acrylate], the pEC50 was 5.00 to 6.00.
For the molecule `COC(=O)/C=C/c1cccc(N(Cc2ccc(-c3ccc(N(C)C)cc3)cc2)C(=O)[C@H]2CC[C@@H](S(C)(=O)=O)CC2)c1` [13.14, cis-(E)-Methyl 3-(3-(N-((4′-(dimethylamino)-[1,1′-biphenyl]-4-yl)methyl)-4-(methylsulfonyl)cyclohexanecarboxamido)phenyl)acrylate], the negative logarithm of the EC50 (pEC50) was 5.00 to 6.00.
Next, `COC(=O)/C=C/c1cccc(N(Cc2ccc(-c3ccc(N(C)C)cc3)cc2)C(=O)[C@H]2CC[C@H](S(C)(=O)=O)CC2)c1` [13.15, trans-(E)-methyl 3-(3-(N-((4′-(dimethylamino)-[1,1′-biphenyl]-4-yl)methyl)-4-(methylsulfonyl)cyclohexanecarboxamido)phenyl)acrylate]: 5.00 to 6.00; `COC(=O)/C=C/c1cccc(N(Cc2ccc(-c3ccc(N(C)C)cc3)cc2)C(=O)[C@H]2CC[C@H](C(=O)O)CC2)c1` [13.16, trans-4-(((4′-(Dimethylamino)-[1,1′-biphenyl]-4-yl)methyl)(3-((E)-3-methoxy-3-oxoprop-1-en-1-yl)phenyl)carbamoyl) cyclohexanecarboxylic acid]: no less than 6.00; `COC(=O)/C=C/c1cccc(N(Cc2ccc(-c3ccc(N(C)C)cc3)cc2)C(=O)C2CCC(=O)NC2)c1` (centres unmarked) [13.17, (E)-Methyl 3-(3-(N-((4′-(dimethylamino)-[1,1′-biphenyl]-4-yl)methyl)-6-oxopiperidine-3-carboxamido)phenyl)acrylate]: 5.00 to 6.00.
Next, `COC(=O)/C=C/c1cccc(N(Cc2ccc(-c3ccc(N(C)C)cc3)cc2)C(=O)C2CCNC(=O)C2)c1` (centres unmarked) [13.18, (E)-Methyl 3-(3-(N-((4′-(dimethylamino)-[1,1′-biphenyl]-4-yl)methyl)-2-oxopiperidine-4-carboxamido)phenyl)acrylate]: 5.00 to 6.00; `COC(=O)/C=C/c1cccc(N(Cc2ccc(-c3ccc(N(C)C)cc3)cc2)C(=O)C2CC[S+]([O-])CC2)c1` (centres unmarked) [13.19, (E)-Methyl 3-(3-(N-((4′-(dimethylamino)-[1,1′-biphenyl]-4-yl)methyl)-1-oxidotetrahydro-2H-thiopyran-4-carboxamido)phenyl)acrylate]: 5.00 to 6.00.

A word on the pEC50: it is the EC50 on a negative log10 scale, so that one unit is a factor of ten. The low end stands for a high EC50, the high end for a low EC50.
